In patent US4791215A, “Derivatives of glutamic acid and aspartic acid” (priority 1984, dated 1988):

Tests used:
[1] = tested on: morphine analgesia; test: Increase in analgesia of morphine, Tail Flick Test (Experiment 1); assay type: in vivo, rats; settings: for percentage variation of latency of pain sensation / M (10-90) ± SE, mean percentage variation of latency: compound 10 mg/kg i.p. + morphine 2 mg/kg; for M (10-90) ± SE, mean percentage variation of latency: mean 10-90 min; for Power ratio with respect to morphine alone: rat, in vivo
Protocol: Experiment No: 1 Increase in analgesia of analgesic-narcotic drugs in rats by the Tail Flick Test
The method is that described by Harris et al. (J. Pharmacol. Exp. Ther. 143 (1964) 141-148).
Male rats are used having a weight of about 150-200 g which have not fasted. A point on the tail is chosen and irradiated by a heat source (75° C.) and the time (in seconds) for which the animal remains without moving its tail is measured.
A maximum period of time of 8 seconds under the heat source is chosen, after which the animal is, in any case, removed to avoid tissue damage. The measurement is effected before (controls) and after treatment with the drugs.
The percentage variation is calculated for each individual animal by the following formula: [formula] The measurements were carried out 10, 20, 30, 45, 60 and 90 minutes after treatment with the analgesics.

[2] = tested on: CCK-8 induced contraction of guinea pig gall bladder; test: Anti-CCK activity on gall bladder strips in vitro; settings: CCK-8 10 ng/ml
Protocol: ANTI-CCK ACTIVITY ON GUINEA PIG GALL BALDDERS IN VITRO
A longitudinal strip of guinea pig gall bladder was placed in a bath of isolated members in the presence of Krebs at a temperature of 32° C. with continuous oxygenation with an oxygen-CO2 mixture (95-5V/V).
The isometric contractions were detected by means of a force transducer and recorded.
The gall bladder was made to contract with the use of a 10 ng/ml concentration of CCK-8; the antagonistic activity of the compounds of the invention on the contracting effect of the CCK was determined with the use of different concentrations and the ED 50 value, that is the concentration in μg/ml of a compound which could antagonise 50% of the contracting effect of the CCK, was determined.

SMILES	percentage variation of latency of pain sensation ([1]; 10')	percentage variation of latency of pain sensation ([1]; 20')	percentage variation of latency of pain sensation ([1]; 30')	percentage variation of latency of pain sensation ([1]; 45')	percentage variation of latency of pain sensation ([1]; 60')	percentage variation of latency of pain sensation ([1]; 90')	M (10-90) ± SE, mean percentage variation of latency [1]	Power ratio with respect to morphine alone [1]	ED50 (concentration antagonising 50% of contracting effect of CCK-8) [2]
CCc1ccc(C(=O)NC(CCC(=O)O)C(=O)NC2CCCCC2)cc1 (stereo not drawn) [Compound C-48]	42.1 ± 14%	59.5 ± 8%	50.1 ± 21%	78.4%	43.7 ± 30%	44.9 ± 18%	53.1 ± 14%	1.78	119.1 µg/mL
CCCN(CCC)C(=O)C(CCC(=O)O)NC(=O)c1ccc(C)cc1 (stereo not drawn) [Compound C-29]	48.7 ± 20%	75.5%	73.6 ± 11%	70.0 ± 19%	47.3 ± 23%	6.0 ± 14%	53.5%	1.80	262 µg/mL
CCCN(CCC)C(=O)C(CCC(=O)O)NC(=O)c1ccc(Cl)c(Cl)c1 (stereo not drawn) [Compound C-5]	34.5 ± 17.4%	21.4 ± 16.0%	59.5 ± 21.1%	84.7%	63.9 ± 18.5%	40.1 ± 23.9%	50.7 ± 23.0%	1.70	4.2 µg/mL
CCCCCCN(CCCCCC)C(=O)C(CCC(=O)O)NC(=O)c1ccc(Cl)c(Cl)c1 (stereo not drawn) [Compound C-8]	67.4 ± 20.5%	74.1 ± 15.8%	80.0 ± 12.9%	85.9 ± 14.1%	87.1%	60.4 ± 17.3%	75.8 ± 10.6%	2.54	0.93 µg/mL
CCCCN(CCCC)C(=O)C(CCC(=O)O)NC(=O)c1ccc(Cl)cc1Cl (stereo not drawn) [Compound C-10]	56.9 ± 25.8%	66.4 ± 21.4%	72.9%	70.1 ± 18.5%	66.2 ± 21.3%	63.2 ± 23.4%	66.0 ± 5.6%	2.21	43.7 µg/mL
CCCCN(CCCC)C(=O)C(CCC(=O)O)NC(=O)c1ccc(Br)cc1 (stereo not drawn) [Compound C-25]	59.7 ± 15.0%	49.0 ± 13.0%	71.5%	61.9 ± 22.0%	49.0 ± 22.0%	20.4 ± 6.0%	51.9 ± 18.0%	1.74	30.3 µg/mL
O=C(O)CCC(NC(=O)c1ccc(Cl)c(Cl)c1)C(=O)N1CCCCC1 (stereo not drawn) [Compound C-26]	50.1 ± 17.0%	80.3 ± 20.0%	84.7 ± 11.0%	71.8 ± 15.0%	32.2%	4.9 ± 6.0%	54.0 ± 31.1%	1.81	146.5 µg/mL
N#Cc1ccc(C(=O)NC(CCC(=O)N2CCCCC2)C(=O)O)cc1 [Compound D-10]	41.0 ± 8.0%	58.6 ± 17.0%	59.8 ± 17.0%	62.7 ± 15.0%	47.0%	35.4 ± 11.0%	50.8 ± 11.2%	1.70	> 200 µg/mL
CCCN(CCC)C(=O)C(CC(=O)O)NC(=O)c1cccc(C#N)c1 (stereo not drawn) [Compound C-22]	82.7 ± 9.4%	67.6 ± 18.0%	88.4 ± 9.3%	83.3%	93.6 ± 6.4%	53.8 ± 14.9%	78.2 ± 15.0%	2.62	> 200 µg/mL
CCCCN(CCCC)C(=O)CCC(NC(=O)c1ccc(Br)cc1)C(=O)O [Compound D-4]	72.8 ± 15.0%	95.8 ± 3.0%	96.3 ± 4.0%	85.5%	87.5 ± 8.0%	45.3 ± 6.0%	80.5 ± 19.3%	2.70	> 200 µg/mL
Cc1ccc(C(=O)NC(CCC(=O)N(C)C)C(=O)O)cc1C [Compound D-12]	45.4 ± 23%	63.9 ± 15%	84. ± 16%	100 ± 0%	78.5 ± 15%	56.1 ± 22%	71.3 ± 20%	2.39	> 300 µg/mL
CCCCN(CCCC)C(=O)C(CCC(=O)O)NC(=O)c1cccc(C#N)c1 (stereo not drawn) [Compound C-24]	80.3 ± 13.6%	87.2%	96.9 ± 3.0%	100.0 ± 0.0%	74.0 ± 16.0%	75.3 ± 14.0%	85.6 ± 11.0%	2.87	> 200 µg/mL
CCCN(CCC)C(=O)C(CCC(=O)O)NC(=O)c1cc(I)c(I)c(I)c1 (stereo not drawn) [Compound C-19]	3.6 ± 12.0%	42.8 ± 19.0%	58.4 ± 21.0%	66.1%	57.1 ± 18.0%	35.6 ± 20.0%	43.9 ± 22.7%	1.47	> 200 µg/mL
O=C(NC(CCC(=O)N1CCCCC1)C(=O)O)c1ccc(Br)cc1 [Compound D-7]	31.8 ± 19.0%	48.0 ± 16.0%	70.5 ± 15.0%	73.7 ± 13.0%	88.6%	32.4 ± 19.0%	57.5 ± 23.5%	1.93	> 200 µg/mL
CN(C)C(=O)CCC(NC(=O)c1ccc(Cl)c(Cl)c1)C(=O)O [Compound D-1]	75.0 ± 16.0%	100.0 ± 0.0%	100.0 ± 0.0%	86.4 ± 14.0%	100.0 ± 0.0%	51.0 ± 21.0%	85.4 ± 19.7%	2.86	> 200 µg/mL
